Assay results published in patent US11458189B2, “Cytoprotective drugs” (BALMES TRANSPLANTATION, priority 2017, dated 2022).
Starred links: 1 amine or outer side, 2 acyl side, 3 side chain; linkers in the order of their positions; H or OH if unused. Positions of bridges follow the written chain, without caps; N, C: chain ends. Non-standard residues stand in square brackets, D forms with d. Residues, ends and D or L forms follow the SMILES beside them. *: point of attachment. hTyr(3S-OH,4S-OH,3'-OSO3H) = N[C@H](C(=O)O)[C@H](O)[C@@H](O)c1ccc(O)c(OS(=O)(=O)O)c1; Orn(4R-OH,5R-OH) = O=C([C@H](C[C@@H](O)[C@@H](O)N[*:3])N[*:1])[*:2]; Pro(3S-OH,4S-Me) = C[C@H]1CN[C@H](C(=O)O)[C@H]1O; X1 = CCCCCOc1ccc(-c2cc(-c3ccc(C(=O)*)cc3)no2)cc1; Gln(3R-OH) = NC(=O)C[C@@H](O)[C@H](N)C(=O)O; Hyp = O=C(O)[C@@H]1C[C@@H](O)CN1

System: Human Astrocytes (HA)
Experiment: Oxygen and glucose deprivation followed by replenishment, cell survival (calcein AM), HA
Type: cell-based
Description: Anidulafungin and micafungin were tested on Human Renal Glomerular Endothelial Cells (HRGEC, Innoprot P10665), on Human Renal Proximal Tubular Epithelial Cells (HRPTEpiC, Innoprot P10662), on Human Astrocytes (HA, caltag SC-1800), on Human Cardiac Microvascular Endothelial Cells (HCMEC, Caltag SC-6000), on Human Hepatic Sinusoidal Endothelial Cells (HHSEC, Caltag SC-5000), on Rat Primary Kidney Glomerular Endothelial cells (Cellbiologics, RN-6014G) and on Bovine Brain Microvascular Endothelial Cells (BBMEC, Caltag SC-B100).
In a first phase, these isolated, purified and cryopreserved cells are thawed and multiplied according to the supplier's recommendations in T75 or T175 flasks pre-coated with 2 μg of fibronectin/[…] (CORNING) for HRGEC, HCMEC, HHSEC and BBMEC, or 2 μg poly-L-lysin/cm^2 (Caltag SC-0403) for HRPTEpiC and HA, or 15 mL/flask 175 cm^2 gelatin-based solution (Cellbiologics) in the presence of endothelial cell supplemented growth medium ECM (P60104, INNOPROT, Caltag, SC-1001) for HRGEC, HCMEC, HHSEC, RPKGEC or BBMEC, or astrocyte cell supplemented growth medium AM (Caltag SC-1801) for HA or epithelial cell supplemented growth medium EpiCM (P60106, INNOPROT) for HRPTEpiC, at 37° C. under 5% CO2 and saturated humidity until their confluency. They are then harvested by trypsinization according to the method described by the supplier for exactly 5 minutes and then reseeded in new flasks a maximum of three times.
To carry out the oxygen and glucose deprivation test followed by their replenishment, the cells will be seeded in 96-well black plates with transparent flat bottom (GREINER). Once a sufficient number of cells has been obtained to allow seeding of 2000 to 15000 cells per well of 96-well plates depending on the cell type, the cells are seeded in these 96-well plates previously coated with an extracellular matrix as listed above for the flasks. The cells are cultured for 5 to 8 days according to the cell type, in the presence of the same growth medium as in the flask as described above except for HRGEC and HRPTEpiC for which DMEM (DUTSCHER) with 1 g/L of supplemented glucose is used, at 37° C. under 5% CO2 and saturated humidity to obtain confluency.
On the first day of oxygen and glucose deprivation, (5th, 6th, 7th or 8th day of culture), the culture conditions are drastically changed. The medium of all plates is removed and replaced by DMEM (DUTSCHER) medium without glucose and supplemented only with 1% penicillin-streptomycin (DUTSCHER). Anidulafungin or micafungin dissolved in dimethyl sulfoxide (DMSO) is then added to each well at the desired concentration, resulting in a maximum of 1% DMSO, and the plates are placed under hypoxia at <1% 02 and 5% CO2 at 37° C. for 24 hours of culture. Each compound was tested in a concentration range.
After 24 hours, the growth medium is changed and replaced by a richer medium, DMEM (DUTSCHER) at 1 g/L glucose and 2% FBS (INNOPROT) and 1% penicillin-streptomycin (DUTSCHER). These media will have been pre-equilibrated at 37° C. in advance. The cells are then returned to culture at 37° C. under 20% 02 and 5% CO2 for 22h.
After 22 hours of reoxygenation, the potential protective effect of anidulafungin or micafungin is measured by a cell viability test using calcein AM (CORNING), which is a dye substrate. The calcein AM can easily cross the cell membrane of the viable cells. The AM ester groups mask the part of the molecule that chelates calcium. Once inside the cells, the (non-fluorescent) calcein AM is hydrolyzed to (fluorescent) calcein by endogenous esterases. The resulting calcein molecule binds to calcium inside the cell and remains trapped inside the cell. These molecules emit strong green fluorescence when subjected to […] of a particular wavelength (495 nm). Since dead cells lack esterase activity, only living cells are labelled.
This cell viability test is performed in two steps. […]

## CCCCCOc1ccc(-c2cc(-c3ccc(C(=O)N[C@H]4C[C@@H](O)[C@@H](O)NC(=O)[C@@H]5[C@@H](O)[C@@H](C)CN5C(=O)[C@H]([C@H](O)CC(N)=O)NC(=O)[C@H]([C@H](O)[C@@H](O)c5ccc(O)c(OS(=O)(=O)O)c5)NC(=O)[C@@H]5C[C@@H](O)CN5C(=O)[C@H]([C@@H](C)O)NC4=O)cc3)no2)cc1 [Micafungin, {5-[(1S,2S)-2-[(3S,6S,9S,11R,15S,18S,20R,21R,24S,25S,26S)-3-[(1R)-2-carbamoyl-1-hydroxyethyl]-11,20,21,25-tetrahydroxy-15-[(1R)-1-hydroxyethyl]-26-methyl-2,5,8,14,17,23-hexaoxo-18-[(4-{5-[4-(pentyloxy)phenyl]-1,2-oxazol-3-yl}benzene)amido]-1,4,7,13,16,22-hexaazatricyclo[22.3.0.0]heptacosan-6-yl]-1,2-dihydroxyethyl]-2-hydroxyphenyl}oxidanesulfonic acid] (X1-[Orn(4R-OH,5R-OH)]T[Hyp][hTyr(3S-OH,4S-OH,3'-OSO3H)][Gln(3R-OH)][Pro(3S-OH,4S-Me)]; lactam 1-C)
[Micafungin] log μM 0
  Globalfluo assay 1: 11119980 arbitrary units
  Globalfluo assay 2: 10122420 arbitrary units
  Globalfluo assay 3: 9942897 arbitrary units
  Mean globalfluo: 10395099 arbitrary units
  Survival rate (%): 2%
[Micafungin] log μM 0.4771213
  Globalfluo assay 1: 10184240 arbitrary units
  Globalfluo assay 2: 11122790 arbitrary units
  Globalfluo assay 3: 12211830 arbitrary units
  Mean globalfluo: 11172953 arbitrary units
  Survival rate (%): 6%
[Micafungin] log μM 0.7781513
  Globalfluo assay 1: 12145620 arbitrary units
  Globalfluo assay 2: 12627660 arbitrary units
  Globalfluo assay 3: 12964960 arbitrary units
  Mean globalfluo: 12579413 arbitrary units
  Survival rate (%): 14%
[Micafungin] log μM 0.90309
  Globalfluo assay 1: 12128260 arbitrary units
  Globalfluo assay 2: 10787240 arbitrary units
  Globalfluo assay 3: 13139350 arbitrary units
  Mean globalfluo: 12018283 arbitrary units
  Survival rate (%): 11%
[Micafungin] log μM 1
  Globalfluo assay 1: 15956640 arbitrary units
  Globalfluo assay 2: 14291510 arbitrary units
  Globalfluo assay 3: 16904820 arbitrary units
  Mean globalfluo: 15717657 arbitrary units
  Survival rate (%): 32%
[Micafungin] log μM 1.079181
  Globalfluo assay 1: 12974980 arbitrary units
  Globalfluo assay 2: 13357070 arbitrary units
  Globalfluo assay 3: 13693180 arbitrary units
  Mean globalfluo: 13341743 arbitrary units
  Survival rate (%): 18%
[Micafungin] log μM 1.176091
  Globalfluo assay 1: 15116230 arbitrary units
  Globalfluo assay 2: 14430130 arbitrary units
  Globalfluo assay 3: 15740520 arbitrary units
  Mean globalfluo: 15095627 arbitrary units
  Survival rate (%): 28%
[Micafungin] log μM 1.30103
  Globalfluo assay 1: 11900350 arbitrary units
  Globalfluo assay 2: 13780590 arbitrary units
  Globalfluo assay 3: 15553770 arbitrary units
  Mean globalfluo: 13744903 arbitrary units
  Survival rate (%): 21%
[Micafungin] log μM 1.477121
  Globalfluo assay 1: 14577460 arbitrary units
  Globalfluo assay 2: 14402140 arbitrary units
  Globalfluo assay 3: 13825080 arbitrary units
  Mean globalfluo: 14268227 arbitrary units
  Survival rate (%): 24%
[Micafungin] log μM −0.5228788
  Globalfluo assay 1: 9708125 arbitrary units
  Globalfluo assay 2: 10748420 arbitrary units
  Globalfluo assay 3: 10103750 arbitrary units
  Mean globalfluo: 10186765 arbitrary units
  Survival rate (%): 1%
[Micafungin] log μM −1
  Globalfluo assay 1: 12091240 arbitrary units
  Globalfluo assay 2: 10337500 arbitrary units
  Globalfluo assay 3: 9946542 arbitrary units
  Mean globalfluo: 10791761 arbitrary units
  Survival rate (%): 4%
[Micafungin] log μM −2
  Globalfluo assay 1: 9536623 arbitrary units
  Globalfluo assay 2: 9993250 arbitrary units
  Globalfluo assay 3: 10712930 arbitrary units
  Mean globalfluo: 10080934 arbitrary units
  Survival rate (%): 0%
